In patent publication US9359338B2, “Cyclopropanecarboxamido-substitute aromatic compounds as anti-tumor agents” (Crown Bioscience Inc. (Taiwan), priority 2012, dated 2016):
Read-outs that look alike come from different tables or passages of the source.

Assays:
[1] = target: KDR kinase (790-1356 AA) (Homo sapiens (Human), UniProt P35968); experiment: Inhibitory activity at KDR kinase (Lance Ultra Ulight-TK assay); type: biochemical
Method in brief: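 Kinase (20 nM final) and compound were premixed 20 min at 30 °C, then phosphorylation ran 2 h at 30 °C with ATP at 90 μM and Ulight-TK substrate at 50 μM, pH 7.5, Mg2+ and Mn2+ present.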

[2] = target: B-Raf kinase (Homo sapiens (Human), UniProt P15056); experiment: Inhibitory activity at B-Raf kinase (ADP-GLO assay); type: biochemical
B-Raf kinase, sequence (P15056 416-766): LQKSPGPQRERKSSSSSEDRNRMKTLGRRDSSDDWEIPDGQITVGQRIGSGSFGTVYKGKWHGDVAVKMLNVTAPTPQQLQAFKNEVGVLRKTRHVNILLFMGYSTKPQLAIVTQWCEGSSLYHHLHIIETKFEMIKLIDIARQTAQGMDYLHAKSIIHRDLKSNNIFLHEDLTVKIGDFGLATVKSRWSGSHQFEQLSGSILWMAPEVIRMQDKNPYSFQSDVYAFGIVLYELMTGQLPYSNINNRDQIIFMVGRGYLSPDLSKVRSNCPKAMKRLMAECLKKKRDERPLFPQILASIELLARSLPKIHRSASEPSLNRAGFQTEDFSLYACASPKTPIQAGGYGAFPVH
Method in brief: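 B-Raf (5 nM) was preincubated with compound (0.25% DMSO final) for 20 min at 30 °C in 50 mM Hepes pH 7.5, 10 mM Mg²⁺, 1 mM EGTA, 2 mM DTT. Reaction with 6 μM ATP and 30 nM GST-MEK1 ran 2 hrs at 30 °C. ADP was detected by ADP-GLO luminescence, giving IC50 values.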

[3] = system: pERK in MDA-MB-231 cells; experiment: Inhibitory activity at pERK (In Cell Western, MDA-MB-231 cells); type: cell-based; conditions: Homo sapiens
Method in brief: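 pERK was measured by in-cell immunofluorescence (PI nuclear counterstain, Acumen read-out) in fixed MDA-MB-231 cells. Compound exposure lasted 2 h in DMEM with 0.1% BSA, using eight 3-fold dilutions starting at 30 μM final and 0.3% DMSO. IC50 values were derived from the resulting curves.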

[4] = system: PLC-PRF-5 cells; experiment: Inhibition of proliferation of PLC-PRF-5 cells (ATPlite); type: cell-based; conditions: Homo sapiens
Method in brief: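 Antiproliferative IC50 from luminescent ATP detection (ATPlite) after 96 h compound exposure at 37 °C. Cells grown in DMEM plus 10% FBS and allowed 2 h to settle, then dosed with eight 3-fold dilutions topping at 30 μM final, DMSO 0.3%.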

[5] = system: tumor; experiment: In vivo anti-tumor activity in pre-clinical animal studies; conditions: compared with compounds of the invention
[6] = Half-life in pre-clinical animal studies; type: in vivo; conditions: compared with compounds of the invention
[7] = MDA-MB-231, MDA-MB-231 cells, read-out: MDA-MB-231 pERK IC50
[8] = PLC-PRF-5, PLC-PRF-5 cells, read-out: PLC-PRF-5 cell proliferation IC50

KDR kinase (790-1356 AA), sequence (P35968 790-1356): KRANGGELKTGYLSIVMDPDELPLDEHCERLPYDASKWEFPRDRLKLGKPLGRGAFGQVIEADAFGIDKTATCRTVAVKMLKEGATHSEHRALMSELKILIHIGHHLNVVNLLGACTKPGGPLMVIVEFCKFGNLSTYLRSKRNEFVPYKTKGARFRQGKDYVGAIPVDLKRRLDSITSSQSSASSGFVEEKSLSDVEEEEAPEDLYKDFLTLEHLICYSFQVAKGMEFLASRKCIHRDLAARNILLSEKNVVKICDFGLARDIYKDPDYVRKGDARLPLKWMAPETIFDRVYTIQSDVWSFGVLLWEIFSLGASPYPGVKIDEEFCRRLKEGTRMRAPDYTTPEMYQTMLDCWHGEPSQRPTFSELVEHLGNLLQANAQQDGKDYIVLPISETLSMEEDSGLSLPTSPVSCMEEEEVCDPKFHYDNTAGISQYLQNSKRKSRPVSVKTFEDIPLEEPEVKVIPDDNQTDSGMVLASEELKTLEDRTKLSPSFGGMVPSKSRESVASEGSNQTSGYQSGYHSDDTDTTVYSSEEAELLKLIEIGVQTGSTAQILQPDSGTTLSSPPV

Work on `CC(F)(F)c1cccc(NC(=O)Nc2ccc(Oc3ccnc(NC(=O)C4CC4)c3)cc2F)c1` [Exe. 217] yielded an IC50 [1] of 9.9 nM, an IC50 [2] of 8.9 nM and an IC50 [3, 7] of 2.3 nM. It also gave an IC50 [4, 8] of 178 nM.

`CC(F)(F)c1ccc(F)c(NC(=O)Nc2ccc(Oc3ccnc(NC(=O)C4CC4)c3)cc2F)c1` [Exe. 218] gave an IC50 [1] of 9.1 nM, an IC50 [2] of 7.8 nM and an IC50 [3, 7] of 3.1 nM. The IC50 [4, 8] was 21 nM.

In the case of `CC(F)(F)c1cc(NC(=O)Nc2ccc(Oc3ccnc(NC(=O)C4CC4)c3)cc2F)ccc1Cl` [Exe. 219], the IC50 [1] is reported as 11 nM, the IC50 [2] is reported as 8.3 nM and the IC50 [3, 7] is reported as 8.8 nM. It also gave an IC50 [4, 8] of 632 nM.

With `CC(F)(F)c1cc(NC(=O)Nc2ccc(Oc3ccnc(NC(=O)C4CC4)c3)cc2F)ccc1F` [Exe. 220] the IC50 [1] was 14.9 nM, the IC50 [2] was 7.1 nM and the IC50 [3, 7] was 4.6 nM. It also gave an IC50 [4, 8] of 240 nM.

In the case of `N#Cc1ccc(NC(=O)Nc2ccc(Oc3ccnc(NC(=O)C4CC4)c3)cc2F)cc1Cl` [Exe. 221], the IC50 [1] is reported as 6.7 nM, the IC50 [2] is reported as 11 nM and the IC50 ([3]; MDA-MB-231, read-out: MDA-MB-231 pERK IC50) is reported as 7.8 nM. For the same compound, the IC50 ([4]; PLC-PRF-5, read-out: PLC-PRF-5 cell proliferation IC50) was 1270 nM.

Compound `Cc1ccc(Oc2ccnc(NC(=O)C3CC3)c2)cc1NC(=O)Nc1cc(F)cc(C(F)(F)F)c1` [Exe. 224] has an IC50 [1] of 9.5 nM, an IC50 [2] of 29 nM and an IC50 [3, 7] of 22.4 nM. The IC50 [4, 8] was 4700 nM.

For `Cc1ccc(Oc2ccnc(NC(=O)C3CC3)c2)cc1NC(=O)Nc1cc(C(F)(F)F)ccc1F` [Exe. 225], the IC50 [1] was 10.7 nM, the IC50 [2] was 11 nM and the IC50 [3, 7] was 12 nM. The IC50 [4, 8] was 5720 nM.

Work on `Cc1ccc(Oc2ccnc(NC(=O)C3CC3)c2)cc1NC(=O)Nc1cc(C(C)(F)F)ccc1F` [Exe. 227] yielded an IC50 [1] of 17.2 nM, an IC50 [2] of 27 nM and an IC50 [3, 7] of 34.4 nM. It also gave an IC50 [4, 8] of 17800 nM.

`Cc1cc(NC(=O)Nc2ccc(F)c(C(F)(F)F)c2)ccc1Oc1ccnc(NC(=O)C2CC2)c1` [Exe. 230] showed an IC50 [1] of 11.7 nM, an IC50 [2] of 20.7 nM and an IC50 [3, 7] of 12 nM. The IC50 [4, 8] was 830 nM.

Compound `Cc1cc(NC(=O)Nc2cccc(C(F)(F)F)c2)ccc1Oc1ccnc(NC(=O)C2CC2)c1` [Exe. 231] has an IC50 [1] of 11.6 nM, an IC50 [2] of 12.5 nM and an IC50 [3, 7] of 7.1 nM. For the same compound, the IC50 [4, 8] was 310 nM.

`Cc1cc(NC(=O)Nc2cccc(OC(F)(F)F)c2)ccc1Oc1ccnc(NC(=O)C2CC2)c1` [Exe. 232] gave an IC50 [1] of 11 nM, an IC50 [2] of 14 nM and an IC50 [3, 7] of 10.9 nM. The IC50 [4, 8] was 418 nM.

Compound `Cc1cc(NC(=O)Nc2cc(C(C)(F)F)ccc2F)ccc1Oc1ccnc(NC(=O)C2CC2)c1` [Exe. 234] has an IC50 [1] of 9.9 nM, an IC50 [2] of 16 nM and an IC50 [3, 7] of 6.8 nM. For the same compound, the IC50 [4, 8] was 63 nM.

In the case of `Cc1cc(NC(=O)Nc2ccc(Cl)c(C(C)(F)F)c2)ccc1Oc1ccnc(NC(=O)C2CC2)c1` [Exe. 235], the IC50 [1] is reported as 13.4 nM, the IC50 [2] is reported as 22 nM and the IC50 [3, 7] is reported as 12.2 nM. For the same compound, the IC50 [4, 8] was 1290 nM.

Work on `O=C(Nc1ccc(Oc2ccnc(NC(=O)C3CC3)c2)cc1)Nc1cc(OCC2CNC2)cc(C(F)(F)F)c1` [Exe. 237, N-[4-[4-[[3-(azetidin-3-ylmethoxy)-5-(trifluoromethyl)phenyl]carbamoylamino]phenoxy]-2-pyridyl]cyclopropanecarboxamide] yielded an IC50 [1] of 13.9 nM, an IC50 [2] of 3.7 nM and an IC50 [3, 7] of 730 nM. For the same compound, the IC50 [4, 8] was 14900 nM.

`Nc1cc(NC(=O)Nc2ccc(Oc3ccnc(NC(=O)C4CC4)c3)c(F)c2)cc(C(F)(F)F)c1` [Exe. 239] gave an IC50 [1] of 9.7 nM, an IC50 [2] of 7 nM and an IC50 [3, 7] of 27.2 nM. For the same compound, the IC50 [4, 8] was 930 nM.

With `CN1CC(Oc2cc(NC(=O)Nc3ccc(Oc4ccnc(NC(=O)C5CC5)c4)cc3)cc(C(F)(F)F)c2)C1` [Exe. 241, N-[4-[4-[[3-(1-methylazetidin-3-yl)oxy-5-(trifluoromethyl)phenyl]carbamoylamino]phenoxy]-2-pyridyl]cyclopropanecarboxamide] the IC50 [1] was 17.9 nM, the IC50 [2] was 9.1 nM and the IC50 [3, 7] was 61.5 nM. The IC50 [4, 8] was 1770 nM.

With `CNC(=O)c1cc(Oc2ccc(NC(=O)Nc3ccc(Cl)c(C(F)(F)F)c3)cc2)ccn1` [sorafenib] the “in vivo anti-tumor activities” value [5] was “weaker than that of many of the compounds in the present invention” and the half-life [6] was “shorter half-life than many of the compounds in this invention”.
